# Experimental data: US20040248887A1, “Inhibitors of cathepsin S” (IRM LLC, priority 2003, published 2004)
# Where two headings read alike, the source gives them in different places.
# Tests used:
# Type in all cases: biochemical
# Cathepsin L = Cathepsin L (Homo sapiens, UniProt P07711); test: Cathepsin L inhibition, fluorogenic peptide substrate kinetic assay; conditions: Table III; Cathepsin L inhibition constant, pH5.5; read-out: Ki Cat. L
# Procedure: (§1) Kinetic measurements are performed in a total reaction volume of 30 μl in 384-well microtiter plates. […] The reactions are initiated by adding the substrate, acetyl-histidine-lysine-phenylalanine-lysine-amino carbamoyl coumarin, to a final concentration of 20 μM. The rate of substrate hydrolysis is measured by monitoring the increase in fluorescence at an excitation wavelength of 380 nm and an emission wavelength of 450 nm that results from cleavage of the aniline bond in the substrate by the enzyme. The apparent inhibition constants for the compounds are determined from the enzyme progress curves (Kuzmic, P., K. C. Elrod, et al., Anal Biochem 2000, 286(1), 45-50) and are then used to calculate the inhibition constants for competitive inhibitors.
# Cathepsin S = Cathepsin S (Homo sapiens, UniProt P25774); test: Cathepsin S inhibition, fluorogenic peptide substrate kinetic assay; conditions: Cathepsin S inhibition constant, pH5.5, read-out: Ki Cat. S
# Cathepsin S, sequence (P25774 115-331, species assumed): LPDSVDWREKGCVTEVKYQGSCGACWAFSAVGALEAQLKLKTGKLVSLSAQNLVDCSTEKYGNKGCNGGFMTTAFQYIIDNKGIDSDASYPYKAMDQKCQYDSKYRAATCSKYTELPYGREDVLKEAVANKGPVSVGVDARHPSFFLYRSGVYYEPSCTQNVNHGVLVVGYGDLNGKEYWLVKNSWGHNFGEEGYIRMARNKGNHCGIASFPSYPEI
# Summary of the method: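 Ki values derive from apparent constants fitted to progress curves, corrected for competition with substrate via [S] and Km. Kinetics were monitored at 380 nm excitation/450 nm emission, after substrate addition (Ac-HPVK-ACC, 50 μM final) to start the reaction.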
# Cathepsin K = biological target: T1, Cathepsin K (Homo sapiens, UniProt P43235); test: Cathepsin K inhibition, fluorogenic peptide substrate kinetic assay; conditions: Table III; Cathepsin K inhibition constant, pH5.5; read-out: Ki Cat. K
# T1 sequence (P43235 115-329): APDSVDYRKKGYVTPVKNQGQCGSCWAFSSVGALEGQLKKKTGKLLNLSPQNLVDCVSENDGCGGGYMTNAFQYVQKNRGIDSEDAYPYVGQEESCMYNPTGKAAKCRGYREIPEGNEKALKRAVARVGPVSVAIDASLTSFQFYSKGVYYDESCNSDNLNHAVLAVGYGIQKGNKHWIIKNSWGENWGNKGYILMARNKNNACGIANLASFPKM
# Procedure: as §1, with “The optimal substrate for cathepsin K, acetyl-lysine-histidine-proline-lysine-amino carbamoyl coumarin, was identified from screening a combinatorial library of fluorogenic peptide substrates (Harris, J. L., B. J. Backes, et al., Proc Natl Acad Sci U S A 2000, 97(14), 7754-9). Kinetic” for “Kinetic”, “substrate, acetyl-lysine-histidine-proline-lysine-amino” for “substrate, acetyl-histidine-lysine-phenylalanine-lysine-amino”, “of 40” for “of 20”
# Cathepsin B = Cathepsin B (Homo sapiens, UniProt P07858); test: Cathepsin B inhibition, fluorogenic peptide substrate kinetic assay; conditions: Table III; Cathepsin B inhibition constant, pH5.5; read-out: Ki Cat. B
# Procedure: The optimal substrate for cathepsin B, acetyl-histidine-proline-valine-lysine-amino carbamoyl coumarin, was identified from screening a combinatorial library of fluorogenic peptide substrates (Harris, J. L., B. J. Backes, et al., Proc Natl Acad Sci USA 2000, 97(14), 7754-9). Kinetic measurements are performed in a total reaction volume of 30 μl in 384-well microtiter plates. Cathepsin B, at a final concentration of 1.5 nM (active site), is incubated with the compounds at twelve varying concentrations in a buffer containing 100 mM NaAc (pH5.5), 1 mM EDTA, 100 mM NaCl, 0.01% Brij-35 for 20 minutes at room temperature. Control reactions in the absence of inhibitor are performed in replicates of 24. The reactions are initiated by adding the substrate, acetyl-histidine-proline-valine-lysine-amino carbamoyl coumarin, to a final concentration of 10 μM. The rate of substrate hydrolysis is measured by monitoring the increase in fluorescence at an excitation wavelength of 380 nm and an emission wavelength of 450 nm that results from cleavage of the aniline bond in the substrate by the enzyme. The apparent inhibition constants for the compounds are determined from the enzyme progress curves (Kuzmie, P., K. C. Elrod, et al., Anal Biochem 2000, 286(1), 45-50) and are then used to calculate the inhibition constants for competitive inhibitors.
# Cathepsin L, sequence (P07711 114-333, species assumed): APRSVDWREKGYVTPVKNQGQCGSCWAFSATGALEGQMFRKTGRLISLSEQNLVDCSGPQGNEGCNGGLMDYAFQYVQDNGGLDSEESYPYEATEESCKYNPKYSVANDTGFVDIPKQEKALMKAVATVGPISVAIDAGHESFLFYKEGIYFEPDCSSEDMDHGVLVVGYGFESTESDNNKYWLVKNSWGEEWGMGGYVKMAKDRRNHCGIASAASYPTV
Ki (Cathepsin L) [µM],Ki (Cathepsin S; Table II) [µM],Ki (Cathepsin S; Table III) [µM],Ki (Cathepsin K) [µM],Ki (Cathepsin B) [µM],Compound
> 10,< 0.1,< 0.1,> 10,> 10,"Cn1nc(C(F)(F)F)cc1-c1ccc(S(=O)(=O)N[C@@H](CC2CCCCC2)C(=O)NCCN2CCc3cc(F)ccc32)s1 [Compound 231, (S)-3-Cyclohexyl-N-[2-(5-fluoro-2,3-dihydro-indol-1-yl)-ethyl]-2-[5-(2-methyl-5-trifluoromethyl-2H-pyrazol-3-yl)-thiophene-2-sulfonylamino]-propionamide]"
< 10,< 1,< 1,< 10,< 10,"C[C@@H](CNc1ccccc1C(N)=O)NC(=O)[C@H](CC1CCCCC1)NC(=O)c1ccc(-c2cccc(F)c2)o1 [Compound 121, 5-(3-Fluoro-phenyl)-furan-2-carboxylic acid {1-(S)-[2-(2-carbamoyl-phenylamino)-1-(S)-methyl-ethylcarbamoyl]-2-cyclohexyl-ethyl}-amide]"
> 10,< 1,< 1,> 10,> 10,Cc1noc(C)c1NC(=O)N[C@@H](CC1CCCCC1)C(=O)NCCN1CCc2cc(F)ccc21 [Compound 221]
< 0.1,< 0.1,< 0.1,< 10,> 10,"Cc1cccc(C(=O)N[C@@H](CC2CCCCC2)C(=O)NCCN2CCc3cc(F)ccc32)c1 [Compound 71, N—(S)-{2-cyclohexyl-1-[2-(5-fluoro-2,3-dihydro-indol-1-yl)-ethylcarbamoyl]-ethyl}-3-methyl-benzamide]"
< 0.1,< 0.1,< 0.1,< 10,> 10,"COc1cccc(C(=O)N[C@@H](CC2CCCCC2)C(=O)N[C@@H](CN2CCOCC2)CN2CCc3cc(F)ccc32)c1 [Compound 151, N-{2-Cyclohexyl-1-(S)-[2-(5-fluoro-2,3-dihydro-indol-1-yl)-1-(S)-morpholin-4-ylmethyl-ethylcarbamoyl]-ethyl}-3-methoxy-benzamide]"
< 10,< 1,< 1,< 10,> 10,"COC(=O)c1cccc(NC[C@H](C)NC(=O)[C@H](CC2CCCCC2)NC(=O)c2ccc(-c3cccc(F)c3)o2)c1 [Compound 110, 3-[2-(S)-(3-Cyclohexyl-2-(S)-{[5-(3-fluoro-phenyl)-furan-2-carbonyl]-amino}-propionylamino)-propylamino]-benzoic acid methyl ester]"
< 10,< 0.1,< 0.1,< 10,> 10,"CS(=O)(=O)Nc1ccc(C(=O)N[C@@H](CC2CCCCC2)C(=O)NCCN2CCc3cc(F)ccc32)cc1 [Compound 81, N-(S)-{2-cyclohexyl-1-[2-(5-fluoro-2,3-dihydro-indol-1-yl)-ethylcarbamoyl]-ethyl}-4-methanesulfonylamino-benzamide]"
< 1,< 0.1,< 0.1,< 10,> 10,"Cc1cccc(C(=O)N[C@@H](CC2CCCC2)C(=O)NCCN2CCc3cc(F)ccc32)c1 [Compound 201, (S)-N-{2-Cyclopentyl-1-[2-(5-fluoro-2,3-dihydro-indol-1-yl)-ethylcarbamoyl]-ethyl}-3-methyl-benzamide]"
< 10,< 1,< 1,> 10,> 10,"Cc1nn(C)c(Cl)c1S(=O)(=O)N[C@@H](CC1CCCCC1)C(=O)NCCN1CCc2cc(F)ccc21 [Compound 241, (S)-2-(5-Chloro-1,3-dimethyl-1H-pyrazole-4-sulfonylamino)-3-cyclohexyl-N-[2-(5-fluoro-2,3-dihydro-indol-1-yl)-ethyl]-propionamide]"
> 10,< 0.1,< 0.1,< 1,> 10,"C[C@@H](CNc1cccc(C(N)=O)c1)NC(=O)[C@H](CC(C)(C)C)NC(=O)c1ccc(-c2cccc(F)c2)o1 [Compound 131, 5-(3-Fluoro-phenyl)-furan-2-carboxylic acid {1-(S)-[2-(3-carbamoyl-phenylamino)-1-(S)-methyl-ethylcarbamoyl]-3,3-dimethyl-butyl}-amide]"
< 10,< 0.1,< 0.1,> 10,> 10,"COC(=O)c1ccc(COC[C@@H](CN2CCc3cc(F)ccc32)NC(=O)[C@H](CCC2CCCCC2)NC(=O)c2cccc(OC)c2)cc1 [Compound 171, 4-{2-(R)-[4-Cyclohexyl-2-(S)-(3-methoxy-benzoylamino)-butyrylamino]-3-(5-fluoro-2,3-dihydro-indol-1-yl)-propoxymethyl}-benzoic acid methyl ester]"
< 0.1,< 0.1,< 0.1,> 10,> 10,"Cc1ccccc1C(C)C(=O)N[C@@H](CC1CCCCC1)C(=O)NCCN1CCc2cc(F)ccc21 (stereo partly drawn) [Compound 61, N-{2-cyclohexyl-1-(S)-[2-(5-fluoro-2,3-dihydro-indol-1-yl)-ethylcarbamoyl]-ethyl}-2-o-tolyl-propionamide]"
< 10,< 0.1,< 0.1,> 10,> 10,"Cc1cccc(S(=O)(=O)N[C@@H](CC2CCCCC2)C(=O)N[C@@H](C)CN2CCc3cc(F)ccc32)c1 [Compound 251, (S,S)-3-Cyclohexyl-N-[2-(5-fluoro-2,3-dihydro-indol-1-yl)-1-methyl-ethyl]-2-(toluene-3-sulfonylamino)-propionamide]"
< 10,< 0.1,< 0.1,> 10,> 10,"CC(C(=O)N[C@@H](CC1CCCCC1)C(=O)NCCN1CCc2cc(F)ccc21)c1ccc(O)cc1 (stereo partly drawn) [Compound 101, N-{2-cyclohexyl-1-(S)-[2-(5-fluoro-2,3-dihydro-indol-1-yl)-ethylcarbamoyl]-ethyl}-2-(4-hydroxy-phenyl)-propionamide]"
< 10,< 0.1,< 0.1,> 10,> 10,"C[C@@H](CNc1ccc(OC(F)(F)F)cc1)NC(=O)[C@H](CC1CCCCC1)NS(=O)(=O)c1cccc(Cl)c1 [Compound 181, (S,S)-2-(3-Chloro-benzenesulfonylamino)-3-cyclohexyl-N-[1-methyl-2-(4-trifluoromethoxy-phenylamino)-ethyl]-propionamide]"
< 1,< 10,< 10,< 10,> 10,"COc1ccc(N2CCC[C@H](NC(=O)[C@H](CC(C)C)NC(=O)c3cccc(C)c3)C2)cc1 (single isomer, unassigned) [Compound 31]"
< 10,< 0.1,< 0.1,> 10,> 10,"C[C@@H](CNc1ccc(OC(F)(F)F)cc1)NC(=O)[C@H](CC1CCCCC1)NC(=O)c1cnn(-c2cccc(F)c2)c1 [Compound 141, 1-(3-Fluoro-phenyl)-1H-pyrazole-4-carboxylic acid {2-cyclohexyl-1-(S)-[1-(S)-methyl-2-(4-trifluoromethoxy-phenylamino)-ethylcarbamoyl]-ethyl}-amide]"
